Measurements as given in PubChem BioAssay (NCI).
Several values for one entry are separate records, joined by “and”; a condition that tells them apart may be missing. Equal entries are not always repeated.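 Interpolation was linear, between the two tested concentrations surrounding the appropriate level; five concentrations were tested over 48 hours in 96-well plates. GI50: concentration for 50% inhibition of growth. TGI: total growth inhibition.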

Key:
Test in all cases: NCI tumour cell line growth inhibition, 48 h
U251 CNS = test system: U251 CNS
EKVX NSCLC = test system: EKVX NSCLC
RXF 393 renal = test system: RXF 393 renal
HL-60(TB) leukemia = test system: HL-60(TB) leukemia
LOX IMVI melanoma = test system: LOX IMVI melanoma
OVCAR-5 ovarian = test system: OVCAR-5 ovarian
SNB-19 CNS = test system: SNB-19 CNS
RPMI-8226 leukemia = test system: RPMI-8226 leukemia
COLO 205 colon = test system: COLO 205 colon
NCI-H522 lung = test system: NCI-H522 lung

| SMILES | TGI (U251 CNS) | TGI (EKVX NSCLC) | TGI (RXF 393 renal) | TGI (HL-60(TB) leukemia) | TGI (LOX IMVI melanoma) | TGI (OVCAR-5 ovarian) | TGI (SNB-19 CNS) | TGI (RPMI-8226 leukemia) | TGI (COLO 205 colon) | TGI (NCI-H522 lung) | GI50 (U251 CNS) | GI50 (EKVX NSCLC) | GI50 (RXF 393 renal) | GI50 (HL-60(TB) leukemia) | GI50 (OVCAR-5 ovarian) | GI50 (COLO 205 colon) |
| --- | --- | --- | --- | --- | --- | --- | --- | --- | --- | --- | --- | --- | --- | --- | --- | --- |
| O=C1COc2ccc([N+](=O)[O-])cc2C(=O)C1 | > 10 µM | > 10 µM | > 10 µM | > 10 µM | > 10 µM | > 10 µM | > 10 µM | > 10 µM | > 10 µM |  |  |  |  |  |  |  |
| c1ccc2c(c1)nc(NC1CCCC1)c1[nH]c(C3CCCC3)nc12 | 13.3 µM | > 100 µM | 30.9 µM | 6.82 µM | 30.6 µM | 61.1 µM | > 100 µM | > 67.9 µM | 36.5 µM | 36.9 µM |  |  |  |  |  |  |
| c1ccc2c(c1)CCc1cc3cc4c(nc3nc1-2)-c1ccccc1CC4 | > 100 µM | > 100 µM | > 100 µM | > 100 µM | > 100 µM |  | > 100 µM | > 100 µM | > 100 µM | > 100 µM |  |  |  |  |  |  |
| O=C(c1ccccc1)c1ccc2nc(-c3c(Cl)c(Cl)c(Cl)c(Cl)c3C(=O)N/N=C/c3ccccc3)[nH]c2c1 | > 100 µM | 60.2 µM | 73.2 µM | 73 µM | > 100 µM | > 100 µM | > 100 µM | 63 µM | 39.3 µM | 55.3 µM |  |  |  |  |  |  |
| CSc1c(C#N)c(=O)[nH]c2n[nH]c(C)c12 | > 100 µM | > 100 µM | > 100 µM | > 100 µM | > 100 µM | > 100 µM | > 100 µM | > 100 µM | > 100 µM |  |  |  |  |  |  |  |
| NCCNc1cccc2ccccc12 | > 100 µM | > 100 µM | > 100 µM | > 100 µM | > 100 µM | > 100 µM | > 100 µM | > 100 µM | > 100 µM | > 100 µM |  |  |  |  |  |  |
| Cc1cccc(C2=NC(C)(C)C(C)(C)N=C2c2cccc(C)n2)n1 | > 100 µM | > 100 µM | > 100 µM | > 100 µM | > 100 µM | > 100 µM | > 100 µM | > 100 µM | > 100 µM | > 100 µM |  |  |  |  |  |  |
| NC(=O)c1ccc2c(c1)S(=O)(=O)c1ccccc1C2=O | > 100 µM | > 100 µM | > 100 µM | > 100 µM | > 100 µM | > 100 µM | > 100 µM | > 100 µM | > 100 µM | > 100 µM |  |  |  |  |  |  |
| NC(=O)C#CC(N)=O | 152 µM and 132 µM and > 100 µM | 29.7 µM and 35 µM and > 100 µM | 14.6 µM and 22.7 µM and 29.5 µM | 4.29 µM and 4.03 µM and 6.3 µM | 80.5 µM and 30.4 µM | 38.4 µM and 47.9 µM and > 90.8 µM | 241 µM and > 100 µM | 62.1 µM | 30.8 µM and 29.8 µM and > 100 µM | 46.5 µM and 27.7 µM and 55.2 µM | 43 µM and 39.1 µM and > 100 µM | 16.1 µM and 18.1 µM and > 100 µM | 3.62 µM and 10.2 µM and 14.6 µM | 1.95 µM | 20.9 µM and > 54 µM | 15.4 µM and 15 µM and 73.6 µM |
| Cc1sc(/N=C/c2c[nH]c3ccccc23)c(C#N)c1C | 96.4 µM | > 100 µM | 74 µM | > 100 µM | > 100 µM | > 100 µM | > 100 µM | > 100 µM | > 100 µM | > 100 µM |  |  |  |  |  |  |
